Data reported in paper PMC12049818, “Identification of NUV-244 as a PNPLA3 I148M degrading small molecule” (iScience, 2025).
Where a chain is given by its changes, count along the chain named.

Experiments:
PNPLA3-tagRFP = molecular target: T1, PNPLA3-tagRFP (Homo sapiens, UniProt Q9NST1); test: Huh7 PNPLA3-tagRFP (WT) reduction on lipid droplets; format: cell-based; settings: representative dose-response curve, Figure 3B
T1 construct: host or cells: Huh7
T1 sequence (Q9NST1 1-481): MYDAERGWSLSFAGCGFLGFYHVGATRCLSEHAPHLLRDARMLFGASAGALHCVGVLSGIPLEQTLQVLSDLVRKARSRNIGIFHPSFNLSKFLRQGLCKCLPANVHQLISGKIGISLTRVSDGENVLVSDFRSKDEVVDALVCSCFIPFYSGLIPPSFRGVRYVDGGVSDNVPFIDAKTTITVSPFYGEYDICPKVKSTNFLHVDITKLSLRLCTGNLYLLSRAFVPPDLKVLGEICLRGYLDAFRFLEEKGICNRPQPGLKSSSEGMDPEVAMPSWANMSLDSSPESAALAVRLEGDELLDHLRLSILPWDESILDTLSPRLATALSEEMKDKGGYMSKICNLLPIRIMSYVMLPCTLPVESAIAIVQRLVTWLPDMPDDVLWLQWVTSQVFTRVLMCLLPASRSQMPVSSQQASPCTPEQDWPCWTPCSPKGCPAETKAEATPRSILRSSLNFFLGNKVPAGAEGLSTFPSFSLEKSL
Description: To confirm activity, NUV-244 was resynthesized. […] Next, to evaluate the specificity against PNPLA3 WT, Huh7 cells expressing PNPLA3-tagRFP were generated (Figures 3A and S3A). Like the mutant, PNPLA3-tagRFP localizes to lipid droplets in Huh7 cells and NUV-244 dose-dependently leads to a decrease of PNPLA3-tagRFP with a similar potency as for the mutant (Figure 3B).
For dose-response cells were seeded at 4000 c/30 μl per well in 384 well plates (Revvity, Waltham, MA, USA, PhenoPlate 384-well microplate, #6057308) and stored in a 37°C incubator with 5% CO2 and 95% humidity overnight. Compounds, serially diluted, and DMSO controls were added, and cells were incubated for another 24h. […]
Images were analyzed using Harmony (Revvity) and MetaXpress software (Molecular Devices, USA) to quantify lipid droplet morphology and PNPLA3 I148M-tagRFP intensity.
Assay plates were evaluated based on Z’ scores (>0.6) and signal-to-background ratio (>12) using Genedata Screener® for HTS and Condoseo modules (Genedata, Switzerland). […] Automated image analysis routines were set up to quantify the number, morphology and intensity of nuclei, lipid droplets and the intensity of PNPLA3 I148M-tagRFP on lipid droplets. […]

Hep3B cells = test: Incucyte growth curves, Hep3B; format: cell-based, human; settings: 1μM or 5μM; compared to DMSO
Description: Huh7, Huh7 PNPLA3 I148M, Huh7 PNPLA3, Hep3b and LX-2 cells were seeded at a concentration of 1000 cells/well in 60 μl of growth medium on 384-well microtiter plates (Revvity, Waltham, MA, USA, PhenoPlate 384-well microplate, #6057308) and stored in a 37°C incubator with 5% CO2 and 95% humidity overnight. Next day cells were treated with DMSO as control (1% final concentration) or compound (1μM or 5μM final concentration) and cell density was recorded in the Incucyte® life cell imager (Sartorius, Göttingen, Germany) every 4 hours over a period of 5 days. Growth curves were generated by monitoring confluence over time. Proliferative capacity of PNPLA3 I148M-expressing cells was compared to control cells, and the restoration of proliferative fitness was analyzed.

PNPLA3 I148M-tagRFP = molecular target: T2, PNPLA3 I148M-tagRFP (Homo sapiens, UniProt Q9NST1, I148M); test: Time-lapse imaging of PNPLA3 I148M-tagRFP on lipid droplets in Huh7 cells; format: cell-based; settings: 1μM or 5μM; Huh7
T2 construct: host or cells: Huh7
T2 sequence (Q9NST1 1-481 I148M): T1 sequence (Q9NST1 1-481) with I148M
Description: To evaluate the kinetics of NUV-244 mediated reduction and degradation of PNPLA3 I148M-tagRFP, we performed time-lapse studies to follow PNPLA3 I148M-tagRFP over time (Figures 5A and 5B). 1μM or 5μM NUV-244 leads to rapid onset of reduction of PNPLA3 I148M-tagRFP on lipid droplets with half maximum effect reached after approximately 2h. To evaluate if PNPLA3 I148M-tagRFP degradation is 26S proteasome dependent, 1μM Bortezomib was co-incubated with NUV-244. Proteasome inhibition prevents PNPLA3 I148M-tagRFP reduction from lipid droplets (Figures 5A and 5B). […] A recent paper identified the E3 ligase responsible for the turnover of endogenous PNPLA3, the ER associated E3 ligase BFAR.[18]
Huh7 cells expressing PNPLA3 I148M-tagRFP were seeded at 4000 cells/well in 30 μL media in 384-well imaging plates (Revvity, PhenoPlate) and stored in a 37°C incubator with 5% CO2 and 95% humidity overnight. Cells were then incubated with Bodipy diluted in growth medium (38nM final concentration) for 1h at 37°C with 5% CO2 and 95% humidity. Cells were treated with DMSO control, 1 μM or 5 μM NUV-244, with or without 1 μM Bortezomib or 5 μM MLN7243. Cells were imaged every 15 minutes over a 20-hour period using an Opera Phenix confocal spinning disc microscope system (Revvity) with a 20x water objective at 561 nm (tagRFP) and 488 nm (BODIPY). Images were analyzed using Harmony software. PNPLA3 I148M-tagRFP intensity on lipid droplets was quantified and compared between treatments.

Cc1cccc(Cc2nc(C)c(C(=O)Nc3cc(O)ccc3Cl)s2)c1 [NUV-244]
EC50 (PNPLA3-tagRFP): 213 nM
effect on proliferative capacity, Hep3B (Hep3B cells): no effects
time to half maximum effect of reduction of PNPLA3 I148M-tagRFP on lipid droplets (PNPLA3 I148M-tagRFP): approximately 2 h
